Source: article PMC10033419, “Blocking NS3–NS4B interaction inhibits dengue virus in non-human primates” (Nature, 2023)
Several values for one entry are separate records, joined by “and”; a condition that tells them apart may be missing. Equal values may be shown once. Read-outs that look alike come from different tables or passages of the source.

How the values were obtained:
[1] = system: NS4A-2K-NS4B precursor cleavage; experiment: microbe, parasite or virus in culture; format: cell-based, DENV-2
[2] = system: DENV-1 G4 45AZ5; experiment: DENV-1/45AZ5 antiviral assay RT-qPCR; format: cell-based
Experimental: A total of 20 DENV strains, representing the available genotypes within the four DENV serotypes, were used in the in vitro genotype panel, from which 19 viruses were described previously in ref. [3] and one additional virus, DENV-1/45AZ5 (ref. [54]), was added.
A potential toxic effect on host cells was tested in parallel, while omitting virus infection, using the MTS/PMS method (Promega) for Vero cells, or by high-content imaging for C6/36 cells, as described previously. […] RT–qPCR data were analysed using the QuantStudio 12K Flex software (v.1.2.3) or SDS v.1.2 Applied Biosystems software. Inhibition values for antiviral molecules were plotted using KaleidaGraph plotting software (v.4.03, Synergy Software).

[3] = ATPLite cell viability assay; format: cell-based; details: human, Huh-7 cells; Huh-7, n=1
Experimental: In parallel, the toxicity was measured using an ATPLite cell viability luminescence assay (PerkinElmer). The assays were performed in three different cell types (Vero, Huh-7 and THP-1/DC-SIGN) as described in ref. [3] to exclude cell-specific activity of the compound.

[4] = system: rVSV Indiana; experiment: microbe, parasite or virus in culture; format: cell-based, recombinant vesicular stomatitis virus; details: Vesicular stomatitis virus, A549
[5] = system: DENV-2 RL strain; experiment: Delayed-treatment study (therapeutic setting); format: in vivo, AG129 mice; details: 30 mg/kg/day, start treatment day 0 p.i., individual mice

## COc1cc(N[C@H](C(=O)c2c[nH]c3ccc(OC(F)(F)F)cc23)c2ccc(Cl)cc2OC)cc(S(C)(=O)=O)c1 [JNJ-1802]
[1]; Dengue virus, read-out: EC50 2k-4B Input, Mean, WT
  EC50: 1.72 nM
[1]; L94F, 10 nM
  2K-NS4B proportion in lysate: 18.25% and 11.99% and 16.55%
[1]; L94F, 500 nM
  2K-NS4B proportion in lysate: 4.03% and 6.25% and 1.49%
  NS4A-2K-NS4B proportion in lysate: 75.65% and 50.22% and 78.28%
[1]; L94F, 1000 nM
  2K-NS4B proportion in lysate: 3.64% and 2.91% and 2.22%
  NS4A-2K-NS4B proportion in lysate: 77.84% and 43.16% and 74.46%
[1]; L94F, read-out: EC50 2k-4B Input, Mean
  EC50: 108 nM
[1]; T108I, 0.5 nM
  2K-NS4B proportion in lysate: 23.11% and 13.79% and 13.87%
  NS4A-2K-NS4B proportion in lysate: 44.71% and 43.02% and 68.40%
[1]; T108I, 1 nM
  NS4A-2K-NS4B proportion in lysate: 72.39% and 47.37% and 49.13%
[1]; T108I, 5 nM
  2K-NS4B proportion in lysate: 9.35% and 15.53% and 10.95%
  NS4A-2K-NS4B proportion in lysate: 71.83% and 55.33% and 51.65%
  NS4B proportion in lysate: 18.83% and 29.14% and 37.41%
[1]; T108I, 10 nM
  2K-NS4B proportion in lysate: 5.10% and 8.23% and 10.83%
  NS4A-2K-NS4B proportion in lysate: 71.88% and 68.85% and 55.44%
  NS4B proportion in lysate: 23.02% and 22.91% and 33.72%
[1]; T108I, 50 nM
  2K-NS4B proportion in lysate: 3.79% and 3.62% and 3.12%
  NS4A-2K-NS4B proportion in lysate: 72.18% and 59.64% and 51.99%
  NS4B proportion in lysate: 24.02% and 36.74% and 44.89%
[1]; T108I, single replicates, read-out: EC50 (2k-4B), Input
  EC50: 6.08 nM and 6.88 nM and 20.9 nM
[1]; T108I, read-out: EC50 2k-4B Input, Mean
  EC50: 11.3 nM
[1]; V91A, 10 nM
  2K-NS4B proportion in lysate: 18.41% and 10.69% and 19.20%
[1]; V91A, 50 nM
  2K-NS4B proportion in lysate: 12.06% and 15.08% and 7.29%
[1]; V91A, 100 nM
  2K-NS4B proportion in lysate: 6.22% and 11.02% and 2.95%
[1]; V91A, 500 nM
  2K-NS4B proportion in lysate: 2.16% and 3.56% and 1.47%
  NS4A-2K-NS4B proportion in lysate: 73.60% and 43.02% and 80.18%
[1]; V91A, 1000 nM
  2K-NS4B proportion in lysate: 2.06% and 2.88% and 1.78%
[1]; V91A, single replicates, read-out: EC50 (2k-4B), Input
  EC50: 44.9 nM and 134 nM and 55.6 nM
[1]; V91A, read-out: EC50 2k-4B Input, Mean
  EC50: 78 nM
[1]; WT, 0.5 nM
  2K-NS4B proportion in lysate: 20.47% and 12.95% and 13.02%
  NS4A-2K-NS4B proportion in lysate: 48.09% and 36.63% and 65.93%
[1]; WT, 1 nM
  2K-NS4B proportion in lysate: 5.60% and 9.33% and 12.10%
  NS4A-2K-NS4B proportion in lysate: 66.81% and 44.14% and 43.57%
  NS4B proportion in lysate: 27.59% and 46.53% and 44.33%
[1]; WT, 5 nM
  2K-NS4B proportion in lysate: 3.71% and 6.95% and 6.88%
  NS4A-2K-NS4B proportion in lysate: 60.94% and 43.36% and 51.87%
  NS4B proportion in lysate: 35.35% and 49.69% and 41.25%
[1]; WT, 10 nM
  2K-NS4B proportion in lysate: 3.62% and 6.23% and 4.49%
  NS4A-2K-NS4B proportion in lysate: 59.94% and 47.30% and 50.84%
  NS4B proportion in lysate: 36.44% and 46.47% and 44.67%
[1]; WT, 50 nM
  2K-NS4B proportion in lysate: 5.23% and 6.22% and 5.06%
  NS4A-2K-NS4B proportion in lysate: 53.55% and 57.44% and 58.39%
  NS4B proportion in lysate: 41.22% and 36.34% and 36.55%
[1]; read-out: EC50 (2k-4B), Input, WT, single replicates
  EC50: 0.491 nM and 0.62 nM and 4.06 nM
[2]; DENV-qPCR-VeroECACC-deltaCt-DENV-1/45AZ5_pre-seeding, single experiments (EXPERIMENT_ID), listed as 64281802-AAA, read-out: EC50 (µM) result_value, DENV-1/45AZ5
  EC50: 0.0016 µM
[2]; Dengue virus, DENV1
  EC90: 4.18 ± 0.71 nM
[2]; Dengue virus, DENV1, DENV-qPCR-VeroECACC-deltaCt-DENV-1/45AZ5_pre-seeding, mean of 6 results, read-out: EC50 (µM) Mean, DENV-1/45AZ5
  EC50: 0.00152 µM
[2]; Dengue virus, DENV1, DENV-qPCR-VeroECACC-deltaCt-DENV-1/45AZ5_pre-seeding, single experiments (EXPERIMENT_ID), read-out: EC50 (µM) result_value, DENV-1/45AZ5
  EC50: 0.0015 µM
[3]
  CC50: 12700 nM
[4]
  EC50: 6900 nM
[5]; blood sampling day 3 p.i.
  Viral Load Copies/ml: 1.31E+03 Copies/ml and 3.02E+03 Copies/ml
  Viral Load Log10: 3.1316 Log10 and 3.1169 Log10 and 3.4801 Log10
[5]; blood sampling day 4 p.i.
  Viral Load Copies/ml: 1.31E+04 Copies/ml and 1.96E+04 Copies/ml and 3.27E+03 Copies/ml and 2.07E+03 Copies/ml
  Viral Load Log10: 4.1169 Log10 and 4.2930 Log10 and 3.5148 Log10 and 3.3153 Log10
[5]; blood sampling day 5 p.i.
  Viral Load Copies/ml: 4.36E+03 Copies/ml and 3.27E+03 Copies/ml and 3.93E+03 Copies/ml
  Viral Load Log10: 3.6398 Log10 and 3.5148 Log10 and 3.5940 Log10
[5]; blood sampling day 6 p.i.
  Viral Load Copies/ml: 1.31E+03 Copies/ml and 2.07E+03 Copies/ml and 5.61E+03 Copies/ml
  Viral Load Log10: 3.1169 Log10 and 3.3153 Log10 and 3.7489 Log10
[5]; blood sampling day 7 p.i.
  Viral Load Copies/ml: 1.57E+03 Copies/ml and 1.64E+03 Copies/ml and 6.54E+03 Copies/ml and 9.82E+03 Copies/ml
  Viral Load Log10: 3.8159 Log10 and 3.9919 Log10
[5]; blood sampling day 8 p.i.
  Viral Load Copies/ml: 6.54E+03 Copies/ml and 1.96E+04 Copies/ml and 3.27E+03 Copies/ml
